Test results reported in ChEMBL document CHEMBL3991601, “The target landscape of clinical kinase drugs” (Science, 2017).
Activity calls are given as the source filed them. Cut-off read from the data, not from the text of the source, for most assays here: actives have a measured Kd and inactives only a lower limit.

Experiments:
[1] = target: Dual specificity tyrosine-phosphorylation-regulated kinase 1A (Homo sapiens, UniProt Q13627)
[2] = target: Tyrosine-protein kinase BTK (Homo sapiens, UniProt Q06187)
Sequence of Tyrosine-protein kinase BTK (Q06187 whole entry): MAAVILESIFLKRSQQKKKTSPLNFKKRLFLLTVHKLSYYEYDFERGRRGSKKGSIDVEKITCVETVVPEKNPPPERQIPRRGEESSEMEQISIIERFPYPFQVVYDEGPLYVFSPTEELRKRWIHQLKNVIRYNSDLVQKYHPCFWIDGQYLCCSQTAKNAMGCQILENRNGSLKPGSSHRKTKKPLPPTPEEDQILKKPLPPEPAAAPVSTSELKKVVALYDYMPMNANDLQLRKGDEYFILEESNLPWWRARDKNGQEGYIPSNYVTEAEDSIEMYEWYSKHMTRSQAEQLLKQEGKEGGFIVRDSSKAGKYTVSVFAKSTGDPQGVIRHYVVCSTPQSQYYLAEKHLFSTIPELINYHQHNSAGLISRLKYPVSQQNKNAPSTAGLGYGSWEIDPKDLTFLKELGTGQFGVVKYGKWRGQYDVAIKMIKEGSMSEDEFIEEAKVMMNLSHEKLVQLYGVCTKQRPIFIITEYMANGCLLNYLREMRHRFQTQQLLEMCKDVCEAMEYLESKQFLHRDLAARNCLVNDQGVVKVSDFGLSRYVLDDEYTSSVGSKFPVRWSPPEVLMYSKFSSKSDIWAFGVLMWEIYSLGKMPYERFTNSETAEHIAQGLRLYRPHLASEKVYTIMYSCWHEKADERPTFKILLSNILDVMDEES

[3] = target: T1, Serine/threonine-protein kinase ULK1 (Homo sapiens, UniProt O75385)
T1 sequence (O75385 whole entry): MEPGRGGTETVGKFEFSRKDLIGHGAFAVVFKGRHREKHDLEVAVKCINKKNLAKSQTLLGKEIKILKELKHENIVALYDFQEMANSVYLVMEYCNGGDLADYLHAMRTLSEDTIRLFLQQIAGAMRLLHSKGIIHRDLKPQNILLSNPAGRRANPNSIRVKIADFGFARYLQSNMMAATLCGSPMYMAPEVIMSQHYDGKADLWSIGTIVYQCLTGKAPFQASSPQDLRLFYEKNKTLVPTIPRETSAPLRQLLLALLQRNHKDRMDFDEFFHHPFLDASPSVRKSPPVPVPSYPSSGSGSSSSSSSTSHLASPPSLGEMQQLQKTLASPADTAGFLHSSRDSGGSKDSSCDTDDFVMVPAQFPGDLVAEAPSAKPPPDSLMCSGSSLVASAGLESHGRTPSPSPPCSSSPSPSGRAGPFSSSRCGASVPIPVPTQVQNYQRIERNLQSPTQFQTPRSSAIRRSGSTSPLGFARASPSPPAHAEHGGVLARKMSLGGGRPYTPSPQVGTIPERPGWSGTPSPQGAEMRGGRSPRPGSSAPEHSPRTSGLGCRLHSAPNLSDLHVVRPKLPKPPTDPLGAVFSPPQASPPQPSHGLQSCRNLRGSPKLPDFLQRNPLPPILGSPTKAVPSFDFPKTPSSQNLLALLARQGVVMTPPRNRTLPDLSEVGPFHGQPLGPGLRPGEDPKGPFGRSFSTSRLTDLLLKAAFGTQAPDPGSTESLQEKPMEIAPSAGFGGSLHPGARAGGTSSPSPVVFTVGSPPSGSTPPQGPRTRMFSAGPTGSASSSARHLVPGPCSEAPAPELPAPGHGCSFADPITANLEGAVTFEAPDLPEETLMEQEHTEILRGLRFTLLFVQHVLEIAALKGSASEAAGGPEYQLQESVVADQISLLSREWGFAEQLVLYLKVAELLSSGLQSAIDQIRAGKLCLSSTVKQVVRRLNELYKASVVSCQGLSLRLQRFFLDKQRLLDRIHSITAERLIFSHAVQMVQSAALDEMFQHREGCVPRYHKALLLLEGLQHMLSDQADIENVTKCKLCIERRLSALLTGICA

[4] = target: T2, Interleukin-1 receptor-associated kinase 3 (Homo sapiens, UniProt Q9Y616)
T2 sequence (Q9Y616 whole entry): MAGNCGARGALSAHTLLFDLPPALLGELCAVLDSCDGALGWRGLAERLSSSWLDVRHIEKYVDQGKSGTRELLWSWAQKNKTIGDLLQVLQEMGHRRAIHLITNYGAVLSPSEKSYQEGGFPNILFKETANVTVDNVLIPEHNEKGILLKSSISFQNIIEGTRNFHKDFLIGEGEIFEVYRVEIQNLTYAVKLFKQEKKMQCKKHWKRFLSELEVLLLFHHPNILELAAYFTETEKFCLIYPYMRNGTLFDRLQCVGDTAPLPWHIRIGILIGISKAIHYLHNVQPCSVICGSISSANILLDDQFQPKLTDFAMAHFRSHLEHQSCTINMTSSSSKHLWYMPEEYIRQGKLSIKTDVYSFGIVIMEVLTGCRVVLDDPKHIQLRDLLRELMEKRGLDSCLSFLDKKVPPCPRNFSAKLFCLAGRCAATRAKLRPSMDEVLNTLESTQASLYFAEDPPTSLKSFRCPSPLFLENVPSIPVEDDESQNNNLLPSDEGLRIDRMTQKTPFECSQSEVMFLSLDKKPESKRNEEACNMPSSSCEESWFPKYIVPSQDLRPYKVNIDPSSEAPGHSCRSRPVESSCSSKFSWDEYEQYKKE

[5] = target: Dual specificity protein kinase CLK2 (Homo sapiens, UniProt P49760)
Sequence of Dual specificity protein kinase CLK2 (P49760 whole entry): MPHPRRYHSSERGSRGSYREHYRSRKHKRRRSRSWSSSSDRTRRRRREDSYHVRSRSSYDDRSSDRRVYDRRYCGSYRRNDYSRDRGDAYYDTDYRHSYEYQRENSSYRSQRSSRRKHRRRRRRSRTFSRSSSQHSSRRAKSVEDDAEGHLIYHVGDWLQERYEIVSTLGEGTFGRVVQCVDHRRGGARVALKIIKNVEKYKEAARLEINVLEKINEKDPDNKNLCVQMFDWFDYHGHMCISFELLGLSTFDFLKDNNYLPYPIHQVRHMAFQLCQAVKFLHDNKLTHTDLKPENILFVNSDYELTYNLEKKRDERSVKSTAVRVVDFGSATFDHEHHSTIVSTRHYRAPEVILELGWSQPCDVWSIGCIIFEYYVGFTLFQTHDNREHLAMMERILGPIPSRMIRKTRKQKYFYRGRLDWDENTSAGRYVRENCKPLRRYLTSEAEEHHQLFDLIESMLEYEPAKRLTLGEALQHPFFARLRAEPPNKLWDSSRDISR

[6] = target: DNA topoisomerase 2-alpha (Homo sapiens, UniProt P11388)
Sequence of DNA topoisomerase 2-alpha (P11388 whole entry): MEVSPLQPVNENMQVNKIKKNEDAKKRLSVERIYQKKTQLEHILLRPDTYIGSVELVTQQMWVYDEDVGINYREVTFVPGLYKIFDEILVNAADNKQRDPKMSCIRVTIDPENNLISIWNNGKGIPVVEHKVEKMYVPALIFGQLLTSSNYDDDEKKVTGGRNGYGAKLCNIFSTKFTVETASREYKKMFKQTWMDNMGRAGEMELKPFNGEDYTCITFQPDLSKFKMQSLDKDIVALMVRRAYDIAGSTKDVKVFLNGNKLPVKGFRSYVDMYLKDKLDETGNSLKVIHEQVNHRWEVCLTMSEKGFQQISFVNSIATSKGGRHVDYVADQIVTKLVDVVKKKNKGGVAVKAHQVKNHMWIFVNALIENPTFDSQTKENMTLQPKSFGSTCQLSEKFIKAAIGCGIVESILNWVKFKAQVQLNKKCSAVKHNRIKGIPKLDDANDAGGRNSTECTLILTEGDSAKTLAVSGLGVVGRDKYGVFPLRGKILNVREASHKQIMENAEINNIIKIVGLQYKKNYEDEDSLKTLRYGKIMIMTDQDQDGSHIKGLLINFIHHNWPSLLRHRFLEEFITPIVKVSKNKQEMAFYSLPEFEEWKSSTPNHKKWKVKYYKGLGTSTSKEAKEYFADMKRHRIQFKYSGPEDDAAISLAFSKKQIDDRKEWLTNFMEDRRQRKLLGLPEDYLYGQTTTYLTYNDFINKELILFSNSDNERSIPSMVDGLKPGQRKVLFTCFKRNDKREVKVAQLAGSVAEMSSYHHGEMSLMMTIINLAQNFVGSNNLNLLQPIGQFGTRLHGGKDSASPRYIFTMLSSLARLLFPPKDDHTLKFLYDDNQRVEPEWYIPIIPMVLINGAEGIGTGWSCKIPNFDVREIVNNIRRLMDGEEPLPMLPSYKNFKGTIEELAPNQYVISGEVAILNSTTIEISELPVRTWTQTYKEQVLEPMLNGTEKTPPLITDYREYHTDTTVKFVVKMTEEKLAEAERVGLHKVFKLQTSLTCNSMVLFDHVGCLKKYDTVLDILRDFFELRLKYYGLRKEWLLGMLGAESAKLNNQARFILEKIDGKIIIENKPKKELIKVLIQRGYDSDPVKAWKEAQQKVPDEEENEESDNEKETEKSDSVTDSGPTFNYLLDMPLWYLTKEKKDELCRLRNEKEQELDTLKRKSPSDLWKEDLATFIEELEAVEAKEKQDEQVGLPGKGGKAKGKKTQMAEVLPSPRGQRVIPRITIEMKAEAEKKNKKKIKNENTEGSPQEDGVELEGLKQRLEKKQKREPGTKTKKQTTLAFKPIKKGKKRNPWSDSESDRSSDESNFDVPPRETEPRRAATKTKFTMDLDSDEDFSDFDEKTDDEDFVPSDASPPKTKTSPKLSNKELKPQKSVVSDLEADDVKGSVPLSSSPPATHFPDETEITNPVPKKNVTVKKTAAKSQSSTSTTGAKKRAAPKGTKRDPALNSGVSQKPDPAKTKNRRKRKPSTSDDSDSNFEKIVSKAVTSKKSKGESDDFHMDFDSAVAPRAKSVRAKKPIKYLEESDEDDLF

[7] = target: G protein-coupled receptor kinase 6 (Homo sapiens, UniProt P43250)
Sequence of G protein-coupled receptor kinase 6 (P43250 whole entry): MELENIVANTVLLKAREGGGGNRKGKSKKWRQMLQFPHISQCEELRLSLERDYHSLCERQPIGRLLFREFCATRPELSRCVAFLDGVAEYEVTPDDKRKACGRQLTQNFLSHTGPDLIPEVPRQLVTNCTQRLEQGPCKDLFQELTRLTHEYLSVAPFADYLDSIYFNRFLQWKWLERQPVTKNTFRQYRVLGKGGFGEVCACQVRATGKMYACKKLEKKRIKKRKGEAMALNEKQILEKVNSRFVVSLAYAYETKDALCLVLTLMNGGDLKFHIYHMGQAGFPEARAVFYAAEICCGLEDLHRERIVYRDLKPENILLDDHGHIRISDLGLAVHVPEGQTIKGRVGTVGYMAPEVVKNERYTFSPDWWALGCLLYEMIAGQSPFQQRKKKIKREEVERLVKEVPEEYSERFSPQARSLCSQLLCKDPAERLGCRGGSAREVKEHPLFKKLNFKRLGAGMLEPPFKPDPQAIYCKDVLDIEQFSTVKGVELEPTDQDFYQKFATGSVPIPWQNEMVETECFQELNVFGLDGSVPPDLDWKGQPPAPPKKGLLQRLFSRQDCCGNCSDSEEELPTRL

[8] = target: T3, Serine/threonine-protein kinase TAO1 (Homo sapiens, UniProt Q7L7X3)
T3 sequence (Q7L7X3 whole entry): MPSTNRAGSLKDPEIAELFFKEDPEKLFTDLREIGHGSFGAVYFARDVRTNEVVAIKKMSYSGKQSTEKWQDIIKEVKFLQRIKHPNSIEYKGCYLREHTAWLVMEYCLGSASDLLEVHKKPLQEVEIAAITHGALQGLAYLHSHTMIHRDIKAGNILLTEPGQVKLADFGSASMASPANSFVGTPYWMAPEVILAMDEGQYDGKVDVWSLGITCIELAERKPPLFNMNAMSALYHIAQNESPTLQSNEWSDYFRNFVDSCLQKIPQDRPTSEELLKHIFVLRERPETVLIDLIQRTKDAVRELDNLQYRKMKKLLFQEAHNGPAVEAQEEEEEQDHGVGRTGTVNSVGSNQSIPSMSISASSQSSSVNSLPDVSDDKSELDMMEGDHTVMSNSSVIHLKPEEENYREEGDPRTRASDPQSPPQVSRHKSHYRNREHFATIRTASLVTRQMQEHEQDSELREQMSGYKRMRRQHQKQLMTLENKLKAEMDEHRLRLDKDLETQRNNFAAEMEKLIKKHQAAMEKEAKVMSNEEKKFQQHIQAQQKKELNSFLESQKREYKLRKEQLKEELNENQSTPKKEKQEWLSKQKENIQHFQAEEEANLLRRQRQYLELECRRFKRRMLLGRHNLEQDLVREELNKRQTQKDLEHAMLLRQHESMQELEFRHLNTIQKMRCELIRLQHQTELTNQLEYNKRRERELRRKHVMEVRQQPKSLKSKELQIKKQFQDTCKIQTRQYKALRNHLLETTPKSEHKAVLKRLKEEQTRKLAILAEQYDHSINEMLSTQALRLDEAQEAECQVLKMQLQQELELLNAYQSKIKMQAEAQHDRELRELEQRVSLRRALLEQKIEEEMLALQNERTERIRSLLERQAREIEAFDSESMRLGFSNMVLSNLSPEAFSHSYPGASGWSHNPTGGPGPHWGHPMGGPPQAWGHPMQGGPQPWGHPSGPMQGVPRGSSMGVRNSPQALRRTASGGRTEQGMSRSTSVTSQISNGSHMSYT
Note: in the data inactive means no Kd found up to 30 µM.

Kd [1] | Kd [2] | Kd [3] | Kd [4] | Kd [5] | Kd [6] | Kd [7] | Kd [8] | Compound
> 30 µM (inactive) | > 30 µM (inactive) | > 30 µM (inactive) | > 30 µM (inactive) | > 30 µM (inactive) | > 30 µM (inactive) | > 30 µM (inactive) | > 30 µM (inactive) | N#CC1(c2ccc(NC(=O)c3cccnc3NCc3ccncc3)cc2)CCCC1 [RIVOCERANIB]
> 30 µM (inactive) | > 30 µM (inactive) | > 30 µM (inactive) | > 30 µM (inactive) | > 30 µM (inactive) | > 30 µM (inactive) | > 30 µM (inactive) | > 30 µM (inactive) | O=C(Cc1ccc(-c2ccc(OCCN3CCOCC3)cc2)cn1)NCc1ccccc1 [TIRBANIBULIN]
> 30 µM (inactive) | > 30 µM (inactive) | > 30 µM (inactive) | > 30 µM (inactive) | > 30 µM (inactive) | > 30 µM (inactive) | > 30 µM (inactive) | > 30 µM (inactive) | O=C1NC(=O)[C@@H](c2cn3c4c(cccc24)CCC3)[C@@H]1c1c[nH]c2ccccc12 [TIVANTINIB]

Second part, the molecule before the results:

Compound | Kd [1] | Kd [2] | Kd [3] | Kd [4] | Kd [5] | Kd [6] | Kd [7] | Kd [8]
Cc1cnc(NC(=O)Nc2cc(Br)c(C)cc2OC[C@@H]2CNCCO2)cn1 [RABUSERTIB] | > 30 µM (inactive) | > 30 µM (inactive) | > 30 µM (inactive) | > 30 µM (inactive) | > 30 µM (inactive) | > 30 µM (inactive) | > 30 µM (inactive) | > 30 µM (inactive)
CO[C@H]1C[C@@H]2CC[C@@H](C)[C@@](O)(O2)C(=O)C(=O)N2CCCC[C@H]2C(=O)O[C@H]([C@H](C)C[C@@H]2CC[C@@H](OP(C)(C)=O)[C@H](OC)C2)CC(=O)[C@H](C)/C=C(\C)[C@@H](O)[C@@H](OC)C(=O)[C@H](C)C[C@H](C)/C=C/C=C/C=C/1C [RIDAFOROLIMUS] | > 30 µM (inactive) | > 30 µM (inactive) | > 30 µM (inactive) | > 30 µM (inactive) | > 30 µM (inactive) | > 30 µM (inactive) | > 30 µM (inactive) | > 30 µM (inactive)
CN1CCN(CCOc2cc(OC3CCOCC3)c3c(Nc4c(Cl)ccc5c4OCO5)ncnc3c2)CC1 [SARACATINIB] | > 30 µM (inactive) | 10.2 µM (active) | > 30 µM (inactive) | > 30 µM (inactive) | > 30 µM (inactive) | > 30 µM (inactive) | > 30 µM (inactive) | > 30 µM (inactive)
CO[C@H]1C[C@@H]2CC[C@@H](C)[C@@](O)(O2)C(=O)C(=O)N2CCCC[C@H]2C(=O)O[C@H]([C@H](C)C[C@@H]2CC[C@@H](O)[C@H](OC)C2)CC(=O)[C@H](C)/C=C(\C)[C@@H](O)[C@@H](OC)C(=O)[C@H](C)C[C@H](C)/C=C/C=C/C=C/1C [SIROLIMUS] | > 30 µM (inactive) | > 30 µM (inactive) | > 30 µM (inactive) | > 30 µM (inactive) | > 30 µM (inactive) | > 30 µM (inactive) | > 30 µM (inactive) | > 30 µM (inactive)
CO[C@H]1C[C@@H]2CC[C@@H](C)[C@@](O)(O2)C(=O)C(=O)N2CCCC[C@H]2C(=O)O[C@H]([C@H](C)C[C@@H]2CC[C@@H](OC(=O)C(C)(CO)CO)[C@H](OC)C2)CC(=O)[C@H](C)/C=C(\C)[C@@H](O)[C@@H](OC)C(=O)[C@H](C)C[C@H](C)/C=C/C=C/C=C/1C [TEMSIROLIMUS] | > 30 µM (inactive) | > 30 µM (inactive) | > 30 µM (inactive) | > 30 µM (inactive) | > 30 µM (inactive) | > 30 µM (inactive) | > 30 µM (inactive) | > 30 µM (inactive)
CC(C)c1cc(CNc2nc(Nc3cc(C4CC4)[nH]n3)cc(N3CCN(C)CC3)n2)on1 [XL-228] | > 30 µM (inactive) | 15.8 µM | > 30 µM (inactive) | 0.08 µM (active) | > 30 µM (inactive) | > 30 µM (inactive) | > 30 µM (inactive) | > 30 µM (inactive)
